This note sets out measurements from patent EP0195433A1, “Amide derivatives processes for preparing them and use thereof” (GREEN CROSS CORPORATION, priority 1985, dated 1986).

Test [1] concerns carrageenan paw edema. In words: Anti-inflammatory activity, carrageenan paw edema method. The test is classed as in vivo, SD male rats. The conditions noted are these: 25 mg/kg, i.p., 30 minutes before carrageenan; four hours after injection. The procedure: SD male rats (body weight: 150 - 180 g) were starved overnight and 25 mg/kg of a selected test compound was administered intraperitoneally to each rat. Thirty minutes later, 0.1 ml of a 1.5% solution of carrageenan in physiological saline was injected under the skin of the paw of a hind leg. Four hours after injection, the volume of the treated leg was measured with a mercury manometer and compared with the value prior to carrageenan injection in order to calculate the percentages of edema and its inhibition. Each of the test compounds was administered in a concentration of 5 mg/ml as a suspension in 5% gum arabic in physiological saline.

In test [2] the test system is granuloma pouch. Description: Anti-inflammatory activity, granuloma pouch method. The test is classed as in vivo, SD male rats. The conditions noted are these: 25 mg/kg/day orally for 8 consecutive days, eight days after croton oil injection; for Weight of Pouch: wet weight. The procedure: Pouches were made under the dorsal skin of SD male rats (body weight: 150 - 180 g) by injecting 20 ml of N2 gas in accordance with the method described in E. Itoga and Y. Miyake; Oyo yakuri, 66, 316 (1970). The rats were subsequently injected with 1 ml of 1% croton oil dissolved in cottonseed oil. Eight days after injection, the wet weight of each pouch and the volume of exudate therefrom were measured. Each of the test compounds was administered orally for 8 consecutive days on a single-dose-a-day basis..

In test [3] the test system is secretion of gastric juice. Description: Inhibition of gastric juice secretion, pyloric ligation (method of Shay et al.). The test is classed as in vivo, Wistar male rats. The following applies: 25 mg/kg, i.p., 4 hours after pyloric ligation; for Total Peptic Activity: casein as substrate; for Total Acid Output: titration with 0.02N NaOH. On the procedure: The activity of each of the test compounds in inhibiting the secretion of gastric juice was measured by pyloric ligation in accordance with the method of Shay et al. described in H. Shay, S.A. Komarov, S.S. Fels et al.; Gastroenterology, 5, 43 (1945). Groups each consisting of 8 - 10 Wistar male rats weighing 150 - 200 g which had been starved for 48 hours were subjected to abdominal incision under ether anesthetization. After pyloric ligation, the incised abdomen of each animal was closed and the animal was kept away from food and water for 4 hours. The test compound was suspended in 5% gum arabic (in physiological saline) to give a concentration of 5 mg/ml, and the suspension was administered intraperitoneally to each rat in a dose of 25 mg/kg immediately after the closure of the incised abdomen. Four hours later, each rat was sacrificed with chloroform and the stomach was extracted. The gastric juice contained in the stomach was withdrawn and checked for its volume, total acidity and total pepsin activity.
The total acidity was determined by titration with 0.02N NaOH using phenolphthalein as an indicator. The total pepsin activity was determined in accordance with the method of Anson; Brit. J. Pharmacol., 13, 54 (1958) using casein as a substrate.

The test system of test [4] is HCl-ethanol ulcers. Description: HCl-ethanol ulcer. The test is classed as in vivo, Wistar male rats. The following applies: for Percent inhibition: 20 mg/kg intraperitoneally; for Ulcer index: 20 mg/kg intraperitoneally 2 hours before 1.5 ml of 15 mM HCl in 60% ethanol orally, 1 hour. The procedure: HCl-ethanol ulcers were induced in Wistar male rats in accordance with the method described in S. Okabe, S. Ueki et al.; Oyo Yakuri, 27, 829 (1984).
The procedures of (2) were repeated except that 2 hours after the intraperitoneal injection of a selected test compound, 1.5 ml of 15 mM HC1 in 60% ethanol was administrered orally to each rat, which thereafter was kept for an additional 1 hour.

The subject of test [5] is Aspirin ulcers. Description: Aspirin ulcer. The test is classed as in vivo, Wistar male rats. The following applies: 20 mg/kg intraperitoneally, 7 hours; for Ulcer index: aspirin 150 mg/kg orally, total length of ulcers. On the procedure: Aspirin ulcers were produced in Wistar male rats (body weight: 150 - 200 g) in accordance with the method described in S. Okabe, K. Takeuchi et al.; Jpn. J. Pharmacol., 24, 363 (1974).
The rats were starved for 24 hours and subjected to pyloric ligation. Immediately thereafter, 150 mg/kg of aspirin suspended in 5% gum arabic was administrered orally to each rat which was simultaneously injected with a selected test compound (20 mg/kg) intraperitoneally.
The rats were kept away from food and water for 7 hours. Thereafter, the stomach was extracted from each animal under ether anesthetization and fixed in formalin. The total length of the ulcers occurring in the glands of the extracted stomach was measured and used as an ulcer index.

Test [6] has as its system Stress ulcers. In words: Stress ulcer (restraint and water immersion). The test is classed as in vivo, Wistar male rats. The following applies: 20 mg/kg intraperitoneally; for Ulcer index: restrained and immersed in water (22 ± 1°C) for 7 hours. The procedure:
Stress ulcers were induced in Wistar male rats in accordance with the method described in K. Takagi and S. Okabe; Jpn. J. Pharmacol., 18, 9 (1968).
The procedures of (2) were repeated except that the rats were restrained immediately after the administration of a selected test compound and immersed in water (22 ± 1°C) for 7 hours.

The test system of test [7] is Acetic acid ulcers. Description: Acetic acid ulcer. The following applies: 14 consecutive days. The test is classed as in vivo, Wistar male rats. The procedure: .Acetic acid ulcers were induced in Wistar male rats in accordance with the method described in K. Takagi, S. Okabe et al.,; Jpn. J. Pharmacol., 19, 418 (1969).
Starting on the day of operation, each of the test compounds was administered orally to each rat for 14 consecutive days on a two-dose-a-day basis. The rats were starved for 24 hours after administration of the final dose. They then were sacrificed with chloroform and the stomach was extracted from each animal and fixed in formalin. The product of the length and breadth of each […] was determined and used as an ulcer index.

In the case of `CCCCCCCCCCC=CC(=O)NCCSSCCNC(=O)C=CCCCCCCCCCC` [Compound 7, [SCH2CH2NH-COCH=CH(CH2)9CH3]2], in test [1], the Percent inhibitaion amounted to 30.7% and the Percentage of edema is recorded as 33.4%.

In test [1], `CCCCCC=CC(=O)NCCSSCCNC(=O)C=CCCCCC` [Compound 3, [SCH2CH2NH-COCH=CH(CH2)4CH3]2] showed a Percent inhibitaion of 29.7% and a Percentage of edema of 36.3%. In addition, in test [2], the “Volume of Exudate” value came to 8.5 mL and the “Weight of Pouch” value was 4.34 g.

As to `CCCCCCCCC=CC(=O)O` [2-Undecenoic acid, reference compound], in test [3], the “Gastric Volume” value is recorded as 2.46 ml/100 g wt, the “Total Peptic Activity” value worked out at 159.8 mg as tyrosine/ 100 g wt and the “Total Acid Output” value turned out to be 318.1 μ Eq/100 g wt.

With `CCCCCCCC=CC(=O)NCCSCC(N)=O` [Compound 6, NH2COCH2SCH2CH2NH-COCH=CH(CH2)6CH3], the Percent inhibition in test [4] is 69.7%; in test [5], 49.7%; in test [6], 54.3%. The Ulcer index in test [4] amounted to 12.5; in test [5], 8.6; in test [6] it was 13.3; in test [7] (100 x 2 mg/kg/day orally), 45.8; in test [7] (200 x 2 mg/kg/day orally), 42.1; in test [7] (400 x 2 mg/kg/day orally), 38.3. For the same molecule, in test [3], the “Gastric Volume” value is given as 0.93 ml/100 g wt. Besides, in test [3], the “Total Peptic Activity” value amounted to 81.5 mg as tyrosine/ 100 g wt. The “Total Acid Output” value in test [3] was 91.1 μ Eq/100 g wt. Also, the Percent healing in test [7] (100 x 2 mg/kg/day orally) was found to be 21.0%; in test [7] (200 x 2 mg/kg/day orally), 27.4%; in test [7] (400 x 2 mg/kg/day orally), 34.0%.

For `CCCCCCCCCCC=CC(=O)NCCSCC(N)=O` [Compound 8, NH2COCH2SCH2CH2NH-COCH=CH(CH2)9CH3], in test [1], the Percent inhibitaion was 49.6% and the Percentage of edema is listed as 24.3%.

As for `CCCCCC=CC(=O)NCCSCC(N)=O` [Compound 4, NH2COCH2SCH2CH2NH-COCH=CH(CH2)4CH3], in test [1], the Percent inhibitaion was found to be 45.2% and the Percentage of edema is 28.3%. Further, in test [2], the “Volume of Exudate” value was found to be 10.6 mL and the “Weight of Pouch” value is on record as 3.81 g.

Regarding `CCCCCCCCC=CC(=O)NCCSSCCNC(=O)C=CCCCCCCCC` [Compound 1, [SCH2CH2NH-COCH=CH(CH2)7CH3]2], in test [3], the “Gastric Volume” value stood at 2.10 ml/100 g wt, the “Total Peptic Activity” value is on record as 139.9 mg as tyrosine/ 100 g wt and the “Total Acid Output” value was 229.2 μ Eq/100 g wt.

In test [4], `CCCCCCCCC=CC(=O)NCCSCC(N)=O` [Compound 2, NH2COCH2SCH2CH2NH-COCH=CH(CH2)7CH3] had a Percent inhibition of 70.5% and a Ulcer index of 12.2. Besides, in test [3], the “Gastric Volume” value came out at 0.97 ml/100 g wt, the “Total Peptic Activity” value stood at 70.9 mg as tyrosine/ 100 g wt and the “Total Acid Output” value stood at 97.4 μ Eq/100 g wt. In test [5], this molecule had a Percent inhibition of 76.4% and a Ulcer index of 4.0. In test [6], this molecule had a Percent inhibition of 69.1% and a Ulcer index of 9.0.
